Laboratory results published in publication PMC10819521 (Pharmaceutics, 2024).
Values joined by “and” are separate entries in the source; they are usually repeats but may differ in a detail not shown here. Identical values can stand only once.

How the values were obtained:
[1] = system: voltage-gated calcium channels; assay: Calcium channel blockade (FLIPR Calcium 6 indicator, SH-SY5Y cells); assay type: cell-based, human; conditions: compounds at 10 µM, KCl/CaCl2 stimulation, n.i. = no inhibition
Description: Calcium channel blockade. Evaluation of the calcium channel blockade of compounds 4a–l was performed using the FLIPR Calcium 6 indicator according to a previously established protocol. Briefly, human neuroblastoma cell line SH-SY5Y seeded out on 96-well plate were treated with fluorescent calcium indicator (FLIPR Calcium 6, Molecular Devices). Cells were incubated with indicator for 2 h at 37 °C, facilitating internalization of the indicator. Subsequently, cells were exposed to nimodipine (10 µM, used as reference inhibitor), DMSO (0.1%, used as vehicle control) or our compounds of interest (10 µM) for 10 min also at 37 °C. Following that, cell fluorescence was recorded using a microplate reader (λEx = 485 nm; λEm = 525 nm). Baseline fluorescence was recorded for 5 s. Afterwards, cells were stimulated by the addition of the solution of KCl and CaCl2 (90 and 5 mM, respectively) in order to induce the opening of voltage-gated calcium channels. An increase in fluorescence of calcium indicator after inducing calcium flux was recorded for another 30 s. Data were collected from three independent experiments, with eight technical replicates per experiment. Fluorescence intensity values were normalized to the baseline recorded before the induction of calcium flux. The percentage of inhibition was calculated as a reduction of normalized calcium flux in comparison with the DMSO vehicle control. Outliers were detected using the Grubbs test, and any outlying values were excluded from further analysis.
Calcium channel blockade. The Ca^2+ channel blocking capacity of compounds 4a–l and nimodipine, used as a standard at a concentration of 10 μM, was evaluated according to an established methodology.

[2] = Oxygen radical absorbance capacity assay (ORAC-FL); conditions: ORAC-FL method; mean ± SEM
Description: Oxygen radical absorbance capacity assay. The evaluation of the antioxidant activity of compounds 4a–l was carried out using the previously established ORAC-FL method, and detailed information is provided in the supporting information.
Antioxidant assay. The antioxidant assessment was conducted by evaluating the compounds 4a–l through the determination of oxygen radical absorbance capacity (ORAC) using the ORAC-Fluorescein (ORAC-FL) method […]
Oxygen radical absorbance capacity assay.
ORAC-FL method, using fluorescein as a fluorescent probe. Shortly, fluorescein and the antioxidants
2,2'-Azobis(amidinopropane)
(emission wavelength) every minute for 1 hour. […]

Nrf2-ARE = assay: Nrf2 transcriptional activation, cell-based luciferase assay; conditions: 24 h; for EC50: CD = concentration required to double the specific activity of the luciferase reporter, read-out: Nrf2 Induction Potencies CD
Description: Nrf2 transcriptional activation potencies. The assessment of the Nrf2 transcriptional activation potencies of compounds 4a–l was carried out using the previously described method, and detailed information is provided in the supporting information.
Nrf2 transcriptional activation potencies of compounds 4a–l. […] AREc32 cells were exposed to escalating concentrations of each compound (1, 5, 10, 25, 50, 100, 125, and 150 μM) for 24 h to reach the cytotoxic threshold, followed by measurements of luciferase activity. Melatonin was used as a positive control.
4e H Cl H n.i. 76 n.i. […]
Nrf2 transcriptional activation potencies. The stable NRF2/ARE luciferase reporter HEK293 cell line
(Promega) according to the manufacturer's instructions. To assess cellular viability, the stable

[3] = target: T1, Human recombinant cathepsin S (Homo sapiens, UniProt P25774); assay: Cathepsin S assay (fluorogenic substrate Z-Phe-Arg-AMC); assay type: biochemical; conditions: for remaining activity at 50 µM: 50 µM inhibitor, 60 min, 100% = no inhibitor, n.i. = residual activity ≥ 95%, read-out: Percentage residual activity of human cathepsin S; for Ki: Ki ± SEM, n.i. = no inhibition, residual activity ≥ 95% at 50 μM, read-out: CatS Ki
T1 construct: purchased Enzo Life Sciences
T1 sequence (P25774 115-331): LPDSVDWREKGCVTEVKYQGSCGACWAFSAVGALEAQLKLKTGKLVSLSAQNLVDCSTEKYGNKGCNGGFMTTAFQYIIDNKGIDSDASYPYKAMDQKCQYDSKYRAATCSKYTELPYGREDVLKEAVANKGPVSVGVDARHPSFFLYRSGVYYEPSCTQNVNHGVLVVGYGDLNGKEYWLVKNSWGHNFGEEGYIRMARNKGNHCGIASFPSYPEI
Description: (§1) Cathepsin assays. Assays with human cathepsins B, S, L, and K were carried out as described previously. Stock solutions of substrates and inhibitors were prepared in DMSO. The final DMSO concentration was 2%. All test compounds were investigated in duplicate at a concentration of 50 µM to determine residual activities based on endpoints of substrate consumption after 60 min. Ki values were obtained in duplicate measurements with six different inhibitor concentrations, and 60-min-progress curves were analyzed by linear regression. IC50 values were obtained by non-linear regression using the equation vi = v0/(1 + ([I]/IC50), where vi is the product formation rate at different inhibitor concentrations, v0 is the uninhibited product formation rate, [I] is the inhibitor concentration, and IC50 is the half-maximal inhibitory concentration. IC50 values are transformed to Ki values using the Cheng-Prusoff equation.
Human recombinant cathepsin S (Enzo Life Sciences) was assayed fluorometrically (FLUOstar Optima plate reader, BMG Labtech) at 25 °C with an emission wavelength of 360 nm and an absorption wavelength of 460 nm. The assay buffer was 100 mM sodium phosphate buffer pH 6.0, 100 mM NaCl, 5 mM EDTA, 0.01% Brij 35. For activation, an enzyme stock solution was diluted with assay buffer containing 5 mM DTT and incubated for 60 min at 37 °C.
(§2) Cathepsins inhibition. Compounds 4a–l were then evaluated for their ability to inhibit Cat S. Besides Cat S, the set of assays included three related human cathepsins, B, L, and K, all members of the class of lysosomal cysteine proteases (see Table S1 in the Supporting Information). Following reported procedures, [39, 40, 41] percentage or residual activities were determined using chromogenic or fluorogenic peptide substrates, with endpoints measured after 60 min of substrate consumption. To determine Ki values, progress curves were followed over 60 min and analyzed by linear regression. Ki values were then obtained by non-linear regression.

[4] = target: T2, Human isolated cathepsin B (Homo sapiens, UniProt P07858); assay: Cathepsin B assay (chromogenic substrate Z-Arg-Arg-pNA); assay type: biochemical; conditions: 50 µM inhibitor, 60 min, 100% = no inhibitor, n.i. = residual activity ≥ 95%; for remaining activity at 50 µM: read-out: Percentage residual activity of human cathepsin B
T2 construct: Human isolated cathepsin B (Calbiochem) was assayed spectrophotometrically; purchased Calbiochem
Description: as §1
(§3) Human isolated cathepsin B (Calbiochem) was assayed spectrophotometrically (Cary 50 Bio, Varian) at 405 nm and 37 °C. Assay buffer was 100 mM sodium phosphate buffer pH 6.0, 100 mM NaCl, 5 mM EDTA, 0.01% Brij 35. For activation, an enzyme stock solution was diluted with assay buffer containing 5 mM DTT and incubated for 30 min at 37 °C. The final concentration of the chromogenic substrate Z-Arg-Arg-pNA was 500 µM (0.45 × Km).
as §2

[5] = target: T3, Human isolated cathepsin L (Homo sapiens, UniProt P07711); assay: Cathepsin L assay (chromogenic substrate Z-Phe-Arg-pNA); assay type: biochemical; conditions: 50 µM inhibitor, 60 min, 100% = no inhibitor, n.i. = residual activity ≥ 95%; for remaining activity at 50 µM: read-out: Percentage residual activity of human cathepsin L
T3 construct: Human isolated cathepsin L (Enzo Life Sciences) was assayed spectrophotometrically; purchased Enzo Life Sciences
T3 sequence (P07711 114-333): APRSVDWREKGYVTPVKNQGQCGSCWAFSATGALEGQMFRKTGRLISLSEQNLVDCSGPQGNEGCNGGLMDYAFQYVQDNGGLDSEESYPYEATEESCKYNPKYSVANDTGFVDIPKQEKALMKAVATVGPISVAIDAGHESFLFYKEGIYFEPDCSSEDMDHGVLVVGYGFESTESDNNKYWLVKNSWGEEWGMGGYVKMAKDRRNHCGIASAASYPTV
Description: as §1
as §3, with “L (Enzo Life Sciences)” for “B (Calbiochem)”, “The assay” for “Assay”, “EDTA, and” for “EDTA,”, “Z-Phe-Arg-pNA” for “Z-Arg-Arg-pNA”, “100” for “500”, “(5.88” for “(0.45”
as §2

[6] = target: T4, Human recombinant cathepsin K (Homo sapiens, UniProt P43235); assay: Cathepsin K assay (substrate Z-Leu-Arg-AMC); assay type: biochemical; conditions: 50 µM inhibitor, 60 min, 100% = no inhibitor, n.i. = residual activity ≥ 95%; for remaining activity at 50 µM: read-out: Percentage residual activity of human cathepsin K
T4 construct: purchased Enzo Life Sciences
T4 sequence (P43235 115-329): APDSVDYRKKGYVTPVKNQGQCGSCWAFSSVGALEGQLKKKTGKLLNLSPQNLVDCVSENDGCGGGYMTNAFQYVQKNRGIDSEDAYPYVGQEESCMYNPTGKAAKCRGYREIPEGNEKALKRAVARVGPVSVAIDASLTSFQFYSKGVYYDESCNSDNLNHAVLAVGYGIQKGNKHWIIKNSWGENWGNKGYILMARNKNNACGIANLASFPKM
Description: as §1
Human recombinant cathepsin K (Enzo Life Sciences) was assayed fluorometrically (FLUOstar Optima plate reader, BMG Labtech) with an emission wavelength of 360 nm and an absorption wavelength of 460 nm. The assay buffer was 100 mM sodium citrate pH 5.0, 100 mM NaCl, 1 mM EDTA, 0.01% CHAPS. For activation, an enzyme stock solution was diluted with assay buffer containing 5 mM DTT and incubated for 30 min at 37 °C. The final concentration of the chromogenic substrate Z-Leu-Arg-AMC was 40 µM (13.33 × Km).
as §2

SMILES	Calcium Channel Blockade (%) [1]	ORAC [2]	Induction of the Nrf2 pathway (luciferase activity) (Nrf2-ARE; concentrations up to 150 μM, versus non-treated cells)	remaining activity at 50 µM [3] [%]	Percentage residual activity of human cathepsin B [4]	Percentage residual activity of human cathepsin L [5]	Percentage residual activity of human cathepsin K [6]	remaining activity at 50 µM [5] [%]	remaining activity at 50 µM [6] [%]	remaining activity at 50 µM [4] [%]	Ki [3] [µM]	EC50 (Nrf2-ARE) [µM]
C#CCNC(=O)C1=C(C)NC(C)=C(C(=O)NCC#C)C1c1ccccc1 [4a, 2,6-Dimethyl-4-phenyl-N3,N5-bis(prop-2-yn-1-yl)-1,4-dihydropyridine-3,5-dicarboxamide]	12%	0.86 Trolox equivalents and 0.86 ± 0.05 Trolox equivalents	no significant activity	68	n.i.	n.i.	n.i.					
C#CCNC(=O)C1=C(C)NC(C)=C(C(=O)NCC#C)C1c1cccc2nonc12 [4d, 4-(2,1,3-Benzoxadiazol-4-yl)-2,6-dimethyl-N3,N5-bis(prop-2-yn-1-yl)-1,4-dihydropyridine-3,5-dicarboxamide]	10%	1.23 ± 0.23 Trolox equivalents		77	n.i.			90	62			
C#CCNC(=O)C1=C(C)NC(C)=C(C(=O)NCC#C)C1c1ccccc1Cl [4e, 4-(2-Chlorophenyl)-2,6-dimethyl-N3,N5-bis(prop-2-yn-1-yl)-1,4-dihydropyridine-3,5-dicarboxamide]	n.i.	1.15 ± 0.02 Trolox equivalents		76	n.i.	n.i.			85			
C#CCNC(=O)C1=C(C)NC(C)=C(C(=O)NCC#C)C1c1ccccc1OC [4f, 4-(2-Methoxyphenyl)-2,6-dimethyl-N3,N5-bis(prop-2-yn-1-yl)-1,4-dihydropyridine-3,5-dicarboxamide]	19%	1.34 ± 0.20 Trolox equivalents		67			n.i.	86		71		
C#CCNC(=O)C1=C(C)NC(C)=C(C(=O)NCC#C)C1c1ccccc1Br [4g, 4-(2-Bromophenyl)-2,6-dimethyl-N3,N5-bis(prop-2-yn-1-yl)-1,4-dihydropyridine-3,5-dicarboxamide]	n.i.	1.43 ± 0.03 Trolox equivalents		70		n.i.			90	88		
C#CCNC(=O)C1=C(C)NC(C)=C(C(=O)NCC#C)C1c1cccc(Br)c1 [4h, 4-(3-Bromophenyl)-2,6-dimethyl-N3,N5-bis(prop-2-yn-1-yl)-1,4-dihydropyridine-3,5-dicarboxamide]	7%	1.28 ± 0.05 Trolox equivalents		54			n.i.	87		71	55.3 ± 7.4	
C#CCN(C)C(=O)C1=C(C)NC(C)=C(C(=O)N(C)CC#C)C1c1ccccc1Cl [4i, 4-(2-Chlorophenyl)-N2,N3,5,6-tetramethyl-N3,N5-bis(prop-2-yn-1-yl)-1,4-dihydropyridine-3,5-dicarboxamide]	11%	1.93 Trolox equivalents and 1.93 ± 0.08 Trolox equivalents		58				91	65	87	69.3 ± 5.2	96 ± 6.1
C#CCN(C)C(=O)C1=C(C)NC(C)=C(C(=O)N(C)CC#C)C1c1cccc(Cl)c1Cl [4j, 4-(2,3-Dichlorophenyl)-N2,N3,5,6-tetramethyl-N3,N5-bis(prop-2-yn-1-yl)-1,4-dihydropyridine-3,5-dicarboxamide]	12%	1.82 Trolox equivalents and 1.82 ± 0.05 Trolox equivalents		69				87	81	90		77.2 ± 7.1
COc1ccc2[nH]cc(CCNC(C)=O)c2c1 [melatonin, reference compound]												66.4 ± 16.4
COCCOC(=O)C1=C(C)NC(C)=C(C(=O)OC(C)C)C1c1cccc([N+](=O)[O-])c1 (stereo not shown) [nimodipine, reference compound]	37%											
